# Source: ChEMBL document CHEMBL1201862, “PubChem BioAssay data set” (2004)
#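 1) Cells in 96-well plates. 2) Compound, 48 h, 5 concentrations. 3) Linear interpolation between surrounding doses. 4) Unreached endpoint = highest concentration. GI50 = concentration required for 50% inhibition of growth.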 Calls of active or inactive are those of the source. No stated cut-off is given here; in the data, active = GI50 up to about 1.1 µM and inactive = higher.
# Tests used:
# Assay in all cases: NCI-60 cell line screen, 48 h
# [1] = test system: NCI-H522
# [2] = test system: SNB-75
# [3] = test system: MOLT-4
# [4] = test system: MDA-MB-231
# [5] = test system: DU-145
# [6] = test system: UO-31
# [7] = test system: OVCAR-4
# [8] = test system: SR
# [9] = test system: HCT-116
# [10] = test system: SF-268
# [11] = test system: ACHN
# [12] = test system: BT-549
# [13] = test system: CAKI-1
# [14] = test system: MCF7
# [15] = test system: Hs-578T
# [16] = test system: NCI-H460
# [17] = test system: K562
# [18] = test system: OVCAR-8
# [19] = test system: A549
# [20] = test system: SF-539
# [21] = test system: SN12C
# [22] = test system: M14
# [23] = test system: HCC 2998
# [24] = test system: IGROV-1
# [25] = test system: NCI/ADR-RES
# [26] = test system: OVCAR-5
# [27] = test system: HOP-92
# [28] = test system: SK-MEL-5
# [29] = test system: LOX IMVI
# [30] = test system: HCT-15
# [31] = test system: A498
# [32] = test system: SF-295
# [33] = test system: RXF 393
# [34] = test system: TK-10
# [35] = test system: HOP-62
# [36] = test system: Malme-3M
# [37] = test system: OVCAR-3
# [38] = test system: SW-620
# [39] = test system: NCI-H23
# [40] = test system: SNB-19
# [41] = test system: COLO 205
# [42] = test system: MDA-N
# [43] = test system: SK-MEL-2
# [44] = test system: HT-29
# [45] = test system: RPMI-8226
# [46] = test system: EKVX
# [47] = test system: PC-3
# [48] = test system: MDA-MB-435
# [49] = test system: 786-0
# [50] = test system: HL-60
# [51] = test system: U-251
# [52] = test system: KM12
# [53] = test system: UACC-257
# [54] = test system: CCRF-CEM
# [55] = test system: NCI-H226
# [56] = test system: SK-MEL-28
# [57] = test system: T47D
# [58] = test system: UACC-62
# [59] = test system: SK-OV-3
smiles,measurement,setting,value
C=C(NC(=O)C(=C)NC(=O)c1ccc2c(n1)-c1coc(n1)C(=C)NC(=O)C(=C)NC(=O)c1nc(oc1C)C(=C)NC(=O)C(C(C)(C)O)NC(=O)C(=C)NC(=O)c1coc(n1)/C(=C/C)NC(=O)[C@H]([C@@H](C)O)NC(=O)c1csc-2n1)C(N)=O (stereo partly specified),GI50,[1],> 87.5 µM (inactive)
same,GI50,[2],> 87.5 µM (inactive)
same,GI50,[3],> 87.5 µM (inactive)
same,GI50,[4],> 87.5 µM (inactive)
same,GI50,[5],> 87.5 µM (inactive)
same,GI50,[6],> 87.5 µM (inactive)
same,GI50,[7],> 87.5 µM (inactive)
same,GI50,[8],> 87.5 µM (inactive)
same,GI50,[9],> 87.5 µM (inactive)
same,GI50,[10],> 87.5 µM (inactive)
same,GI50,[11],> 87.5 µM (inactive)
same,GI50,[12],37.3 µM (inactive)
same,GI50,[13],> 87.5 µM (inactive)
same,GI50,[14],> 87.5 µM (inactive)
same,GI50,[15],> 87.5 µM (inactive)
same,GI50,[16],59.2 µM (inactive)
same,GI50,[17],> 87.5 µM (inactive)
same,GI50,[18],> 87.5 µM (inactive)
same,GI50,[19],> 87.5 µM (inactive)
same,GI50,[20],> 87.5 µM (inactive)
same,GI50,[21],> 87.5 µM (inactive)
same,GI50,[22],55 µM (inactive)
same,GI50,[23],> 87.5 µM (inactive)
same,GI50,[24],61.1 µM (inactive)
same,GI50,[25],> 87.5 µM (inactive)
same,GI50,[26],> 87.5 µM (inactive)
same,GI50,[27],> 87.5 µM (inactive)
same,GI50,[28],41.6 µM (inactive)
same,GI50,[29],53.8 µM (inactive)
same,GI50,[30],> 87.5 µM
same,GI50,[31],> 87.5 µM (inactive)
same,GI50,[32],> 87.5 µM (inactive)
same,GI50,[33],> 87.5 µM (inactive)
same,GI50,[34],> 87.5 µM (inactive)
same,GI50,[35],81.5 µM (inactive)
same,GI50,[36],> 87.5 µM (inactive)
same,GI50,[37],> 87.5 µM (inactive)
same,GI50,[38],> 87.5 µM (inactive)
same,GI50,[39],> 87.5 µM (inactive)
same,GI50,[40],> 87.5 µM (inactive)
same,GI50,[41],72.9 µM (inactive)
same,GI50,[42],> 87.5 µM (inactive)
same,GI50,[43],> 87.5 µM (inactive)
same,GI50,[44],> 8.75 µM (inactive)
same,GI50,[45],> 87.5 µM (inactive)
same,GI50,[46],> 87.5 µM (inactive)
same,GI50,[47],> 87.5 µM (inactive)
same,GI50,[48],> 87.5 µM (inactive)
same,GI50,[49],> 87.5 µM (inactive)
same,GI50,[50],> 87.5 µM (inactive)
same,GI50,[51],> 87.5 µM (inactive)
same,GI50,[52],66.7 µM (inactive)
same,GI50,[53],> 87.5 µM (inactive)
same,GI50,[54],> 87.5 µM (inactive)
same,GI50,[55],> 87.5 µM (inactive)
same,GI50,[56],> 87.5 µM (inactive)
CN(C)C(=O)Oc1ccc(C(=S)Nc2ccccc2)cc1Br,GI50,[1],14.8 µM (inactive)
same,GI50,[3],13.2 µM (inactive)
same,GI50,[5],54.5 µM (inactive)
same,GI50,[6],33.5 µM (inactive)
same,GI50,[7],19.1 µM (inactive)
same,GI50,[57],25 µM (inactive)
same,GI50,[8],16.1 µM (inactive)
same,GI50,[9],34 µM (inactive)
same,GI50,[10],6.9 µM (inactive)
same,GI50,[11],30.5 µM (inactive)
same,GI50,[12],31.3 µM (inactive)
same,GI50,[13],63.7 µM (inactive)
same,GI50,[58],20.3 µM (inactive)
same,GI50,[14],25.8 µM (inactive)
same,GI50,[15],8.59 µM (inactive)
same,GI50,[16],23.1 µM (inactive)
same,GI50,[17],18.7 µM (inactive)
same,GI50,[18],17.6 µM (inactive)
same,GI50,[19],33 µM (inactive)
same,GI50,[20],72.3 µM (inactive)
same,GI50,[22],18.6 µM (inactive)
same,GI50,[23],33.1 µM (inactive)
same,GI50,[24],21 µM (inactive)
same,GI50,[25],20.4 µM (inactive)
same,GI50,[26],41.9 µM (inactive)
same,GI50,[28],16.9 µM (inactive)
same,GI50,[29],20.9 µM (inactive)
same,GI50,[30],28.9 µM
same,GI50,[32],5.11 µM (inactive)
same,GI50,[35],45.1 µM (inactive)
same,GI50,[36],33.6 µM (inactive)
same,GI50,[59],> 100 µM (inactive)
same,GI50,[37],30.1 µM (inactive)
same,GI50,[38],37.4 µM (inactive)
same,GI50,[39],22.9 µM (inactive)
same,GI50,[40],74.6 µM (inactive)
same,GI50,[41],24.2 µM (inactive)
same,GI50,[42],21.7 µM (inactive)
same,GI50,[43],21.9 µM (inactive)
same,GI50,[44],21.4 µM (inactive)
same,GI50,[45],22.2 µM (inactive)
same,GI50,[46],32.5 µM (inactive)
same,GI50,[47],27.7 µM (inactive)
same,GI50,[48],19.5 µM (inactive)
same,GI50,[49],62.8 µM (inactive)
same,GI50,[50],16.8 µM (inactive)
same,GI50,[51],83 µM (inactive)
same,GI50,[52],21.7 µM (inactive)
same,GI50,[53],24.7 µM (inactive)
same,GI50,[54],21 µM (inactive)
same,GI50,[56],31.8 µM (inactive)
CN(C)Cc1cc(/N=N/c2ccc(Cl)cc2)ccc1OC(=O)c1ccccc1,GI50,[1],12.2 µM (inactive)
same,GI50,[2],17 µM (inactive)
same,GI50,[3],8.85 µM (inactive)
same,GI50,[4],14.1 µM (inactive)
same,GI50,[5],17 µM (inactive)
same,GI50,[6],12.6 µM (inactive)
same,GI50,[7],14.1 µM (inactive)
same,GI50,[8],12 µM (inactive)
same,GI50,[9],16.4 µM (inactive)
same,GI50,[10],19.2 µM (inactive)
same,GI50,[11],14.5 µM (inactive)
same,GI50,[12],22.1 µM (inactive)
same,GI50,[14],13.2 µM (inactive)
same,GI50,[15],16.4 µM (inactive)
same,GI50,[16],15.3 µM (inactive)
same,GI50,[17],14.4 µM (inactive)
same,GI50,[18],17 µM (inactive)
same,GI50,[19],3.26 µM (inactive)
same,GI50,[20],18.2 µM (inactive)
same,GI50,[21],14.6 µM (inactive)
same,GI50,[23],15.3 µM (inactive)
same,GI50,[24],13.2 µM (inactive)
same,GI50,[25],17.7 µM (inactive)
same,GI50,[26],16.8 µM (inactive)
same,GI50,[27],2.9 µM (inactive)
same,GI50,[28],14.9 µM (inactive)
same,GI50,[29],12.4 µM (inactive)
same,GI50,[30],12.9 µM
same,GI50,[31],15.5 µM (inactive)
same,GI50,[32],14.8 µM (inactive)
same,GI50,[33],14.5 µM (inactive)
same,GI50,[34],15.3 µM (inactive)
same,GI50,[35],12.6 µM (inactive)
same,GI50,[36],16.7 µM (inactive)
same,GI50,[37],15.7 µM (inactive)
same,GI50,[38],16.9 µM (inactive)
same,GI50,[39],17.8 µM (inactive)
same,GI50,[40],15 µM (inactive)
same,GI50,[41],18.4 µM (inactive)
same,GI50,[42],16.5 µM (inactive)
same,GI50,[44],14.4 µM (inactive)
same,GI50,[45],15.6 µM (inactive)
same,GI50,[46],12.1 µM (inactive)
same,GI50,[47],15.6 µM (inactive)
same,GI50,[48],15.7 µM (inactive)
same,GI50,[49],14.7 µM (inactive)
same,GI50,[50],13.5 µM (inactive)
same,GI50,[51],15 µM (inactive)
same,GI50,[52],15.7 µM (inactive)
same,GI50,[53],19.2 µM (inactive)
same,GI50,[54],15.3 µM (inactive)
same,GI50,[55],21.9 µM (inactive)
same,GI50,[56],16.1 µM (inactive)
CCCOC1OC(CS(=O)(=O)O)C(O)C(O)C1O (stereo unspecified),GI50,[2],> 100 µM (inactive)
same,GI50,[3],> 100 µM (inactive)
same,GI50,[5],> 100 µM (inactive)
same,GI50,[6],> 100 µM (inactive)
same,GI50,[7],> 100 µM (inactive)
same,GI50,[57],> 100 µM (inactive)
same,GI50,[8],> 100 µM (inactive)
same,GI50,[9],> 100 µM (inactive)
same,GI50,[12],> 100 µM (inactive)
same,GI50,[13],> 100 µM (inactive)
same,GI50,[58],> 100 µM (inactive)
same,GI50,[14],> 100 µM (inactive)
same,GI50,[15],> 100 µM (inactive)
same,GI50,[16],> 100 µM (inactive)
same,GI50,[17],> 100 µM (inactive)
same,GI50,[18],> 100 µM (inactive)
same,GI50,[21],> 100 µM (inactive)
same,GI50,[22],> 100 µM (inactive)
same,GI50,[23],> 100 µM (inactive)
same,GI50,[24],> 100 µM (inactive)
same,GI50,[25],> 100 µM (inactive)
same,GI50,[26],> 100 µM (inactive)
same,GI50,[27],> 100 µM (inactive)
same,GI50,[28],> 100 µM (inactive)
same,GI50,[29],> 100 µM (inactive)
same,GI50,[30],> 100 µM
same,GI50,[31],> 100 µM (inactive)
same,GI50,[32],> 100 µM (inactive)
same,GI50,[33],> 100 µM (inactive)
same,GI50,[34],> 100 µM (inactive)
same,GI50,[35],> 100 µM (inactive)
same,GI50,[36],> 100 µM (inactive)
same,GI50,[59],> 100 µM (inactive)
same,GI50,[37],> 100 µM (inactive)
same,GI50,[38],> 100 µM (inactive)
same,GI50,[39],> 100 µM (inactive)
same,GI50,[40],> 100 µM (inactive)
same,GI50,[41],> 100 µM (inactive)
same,GI50,[42],> 100 µM (inactive)
same,GI50,[43],> 100 µM (inactive)
same,GI50,[44],> 100 µM (inactive)
same,GI50,[45],> 100 µM (inactive)
same,GI50,[47],> 100 µM (inactive)
same,GI50,[48],> 100 µM (inactive)
same,GI50,[50],> 100 µM (inactive)
same,GI50,[51],> 100 µM (inactive)
same,GI50,[52],> 100 µM (inactive)
same,GI50,[53],> 100 µM (inactive)
same,GI50,[54],> 100 µM (inactive)
same,GI50,[55],> 100 µM (inactive)
same,GI50,[56],> 100 µM (inactive)
